Assays:
[1] = Crystallization from hot saturated solutions by fast cooling; settings: fast cooling from 50° C. (ice bath); MEK; yellow solid
Method: Approximate 100 mg of drug substance was dissolved in the minimal amount of selected solvents at 50° C. Obtained solutions were put into an ice bath. Precipitates were collected by filtration. The solid part (wet cake) was investigated by XRPD. When differences were observed, additional investigations were performed (e.g. DSC, TGA. FT-IR, PLM/SEM, etc.). When no precipitation was obtained, the solutions were put in −20° C. freezer for crystallization.

[2] = Crystallization from hot saturated solutions by slow cooling; settings: slow cooling 50° C. to 5° C. at 0.1° C./min
Method: Approximate 100 mg of drug substance was dissolved in the minimal amount of selected solvents at 50° C. Obtained solutions were cooled to 5° C. at 0.1° C./min. Precipitates were collected by filtration. The solid part (wet cake) was investigated by XRPD. When differences were observed, additional investigations were performed (e.g. DSC, TGA. FT-IR, PLM/SEM, etc.).
Scale up: About 200 mg of drug substance will be dissolved in MEK. Obtained solutions will be applied with cooling rate of 0.1° C./min for slow cooling.

[3] = Water activity study at 25° C. (acetone/water); assay type: physicochemical; settings: Acetone & water, protected by N2, 5 days
Method: Water activity experiments were conducted at 25° C. in 10 different water activities with 1 set of organic solvent/water mixtures (acetone/water) to determine critical water activity between anhydrate and hydrate.

[4] = Scale up experiment of Pattern A and Pattern D; settings: Slow cooling, MEK
Method: About 6 g API were used for Pattern A and Pattern D scale up.
Obtained suspension was filtered. The solid part (wet cake) was investigated by XRPD.
About 3 g drug substance were equilibrated in 8 mL of solvent (Water: Acetone, 10:90, v:v) at 25° C. for 1 week with a stirring plate. Obtained suspension was filtered. The solid part (wet cake) was investigated by XRPD.

[5] = Equilibration with solvents at 25° C.
Method: About 50 mg of drug substance was equilibrated in suitable amount of solvent at 25° C. for 2 weeks with a stirring plate (Table 30). Obtained suspension was filtered. The solid part (wet cake) was investigated by XRPD. When differences were observed, additional investigations were performed (e.g. DSC, TGA. FT-IR, PLM/SEM, etc.).
[…] The solid part (wet cake) was investigated by XRPD. If differences are observed, additional investigation will be performed (e.g. DSC, TGA, HPLC, etc.)

[6] = Crystallization at room temperature by slow evaporation
Method: Combined with approximate solubility experiment, solubility samples were filtered by 0.45 μm nylon filter. Obtained solutions were slow evaporated at ambient condition. Solid residues were examined for their polymorphic form (Table 34).
Scale up: About 200 mg of drug substance will be dissolved in EtOAc. Obtained solutions shall be exposed to ambient condition (protected by N2) to allow slow evaporation of solvents (Table 35).

[7] = Precipitation by addition of anti-solvent; settings: anti-solvent Heptane
Method: About 50 mg of drug substance was dissolved in a good solvent. Anti-solvent was added into the obtained solutions slowly. Precipitates were collected by filtration. The solid part (wet cake) was investigated by XRPD. When differences were observed, additional investigations were performed (e.g. DSC, TGA. FT-IR, PLM/SEM, etc.).
Scale up: About 200 mg of drug substance was dissolved in EtOAc. Heptane was added to the obtained solutions. The solid part (wet cake) was investigated by XRPD. When differences were observed, additional investigations were performed (e.g. DSC, TGA. FT-IR, PLM/SEM, etc.)

[8] = 2 weeks, Heptane/Acetone, 80/20
[9] = 5 days, protected by N2, Acetone
[10] = 5 days, protected by N2, Heptane
[11] = 5 days, protected by N2, Toluene

For `CCC(=O)[O][Mn][O]C(=O)CC.c1cc2nc(c1)CN[C@H]1CCCC[C@@H]1NCCN[C@H]1CCCC[C@@H]1NC2` [API], the purity [1] was “Yellow solid, 94.19%”, the Comments ([2]; Acetone) was “API was soluble in the solvent” and the purity ([2]; EtOAc) was “White solid, purity 100%”. For the same molecule, the Comments ([2]; IPA) was “API was soluble in the solvent”, the Comments ([2]; IPAC) was “API was soluble in the solvent” and the purity ([2]; MEK) was “White solid, purity 100%”. For the same molecule, the Comments ([2]; Water) was “API was soluble in the solvent”, the Comments ([3]; a.w. 0) was “API degradation” and the purity ([3]; a.w. 0) was 97.34%. The XRPD ([3]; a.w. 0.103) was “Pattern A”, the purity ([3]; a.w. 0.103) was “Purity 98.27%” and the XRPD ([3]; a.w. 0.206) was “Pattern A”. The purity ([3]; a.w. 0.206) was “Purity 99.18%”, the XRPD ([3]; a.w. 0.301) was “Pattern D” and the purity ([3]; a.w. 0.301) was “Purity 99.77%”. The XRPD ([3]; a.w. 0.400) was “Pattern D”, the purity ([3]; a.w. 0.400) was “Purity 99.49%” and the XRPD ([3]; a.w. 0.501) was “Pattern D”. For the same molecule, the purity ([3]; a.w. 0.501) was “Purity 99.33%”, the XRPD ([3]; a.w. 0.603) was “Pattern D” and the purity ([3]; a.w. 0.603) was “Purity 99.19%”. The Comments ([3]; a.w. 0.703) was “Clear solution”, the Comments ([3]; a.w. 0.803) was “Clear solution” and the Comments ([3]; a.w. 0.901) was “Clear solution”. For the same molecule, the Comments [4] was “API degradation, purity”, the purity [4] was 93.4% and the Comments ([5]; 2 weeks, EtOAc) was “API degradation,”. For the same molecule, the purity ([5]; 2 weeks, EtOAc) was “purity 75.69%”, the purity ([5]; 2 weeks, Heptane) was “Purity 99.02%” and the Comments [5, 8] was “API degradation,”. For the same molecule, the purity [5, 8] was “purity 94.83%”, the Comments ([5]; 2 weeks, Heptane/EtOAc, 80/20) was “API degradation,” and the purity ([5]; 2 weeks, Heptane/EtOAc, 80/20) was “purity 92.64%”. The Comments ([5]; 2 weeks, IPAC) was “API degradation,”, the purity ([5]; 2 weeks, IPAC) was “purity 84.49%” and the Comments ([5]; 2 weeks, MTBE) was “API degradation,”. For the same molecule, the purity ([5]; 2 weeks, MTBE) was “purity 88.12%”, the Comments ([5]; 2 weeks, MTBE/Acetone, 80/20c) was “API degradation,” and the purity ([5]; 2 weeks, MTBE/Acetone, 80/20c) was “purity 87.39%”. The Comments ([5]; 2 weeks, MTBE/EIOAc, 80/20) was “API degradation,”, the purity ([5]; 2 weeks, MTBE/EIOAc, 80/20) was “purity 89.32%” and the Comments [5, 9] was “API degradation”. For the same molecule, the purity [5, 9] was 98.41%, the Comments ([5]; 5 days, protected by N2, EtOAc) was “API degradation” and the purity ([5]; 5 days, protected by N2, EtOAc) was 97.78%. The Comments [5, 10] was “API degradation”, the purity [5, 10] was 99.85% and the Comments ([5]; 5 days, protected by N2, IPAC) was “API degradation”. For the same molecule, the purity ([5]; 5 days, protected by N2, IPAC) was 98.30%, the Comments ([5]; 5 days, protected by N2, MEK) was “API degradation” and the purity ([5]; 5 days, protected by N2, MEK) was 97.52%. For the same molecule, the Comments ([5]; 5 days, protected by N2, MTBE) was “API degradation”, the purity ([5]; 5 days, protected by N2, MTBE) was 98.62% and the Comments [5, 11] was “API degradation”. The purity [5, 11] was 92.88%, the Comments ([6]; protect with N2, 1,4-Dioxane) was “API degradation, purity” and the purity ([6]; protect with N2, 1,4-Dioxane) was 97.76%. For the same molecule, the Comments ([6]; protect with N2, ACN) was “API degradation, purity”, the purity ([6]; protect with N2, ACN) was 98.98% and the purity ([6]; protect with N2, Acetone) was “Purity 99.39%”. The purity ([6]; protect with N2, DCM) was “Purity 99.93%”, the purity ([6]; protect with N2, EtOAc) was “Purity 99.42%” and the purity ([6]; protect with N2, Ethanol) was “Purity 99.65%”. For the same molecule, the purity ([6]; protect with N2, IPA) was “Purity 99.63%”, the purity ([6]; protect with N2, IPAC) was “Purity 99.90%” and the purity ([6]; protect with N2, MEK) was “Purity 99.33%”. For the same molecule, the purity ([6]; protect with N2, MTBE) was “Purity 99.88%”, the purity ([6]; protect with N2, Methanol) was “Purity 99.92%” and the purity ([6]; protect with N2, THF) was “Purity 99.12%”. The Comments ([6]; protect with N2, Toluene) was “API degradation, purity”, the purity ([6]; protect with N2, Toluene) was 96.47% and the purity ([7]; solvent Acetone) was “purity 99.93%”. For the same molecule, the purity ([7]; solvent EtOAc) was “purity 99.95%”.
